# Laboratory results from patent US12410391B2, “In vitro cell culture mucus systems” (The University of North Carolina at Chapel Hill, priority 2018, dated 2025).
# Tested on: human colonic epithelium (monolayer from human colonic stem cells)
# Assay: VIP-stimulated water secretion into the apical reservoir under ALI culture
# Type: cell-based
# Procedure: The inserts were rinsed with PBS×1 prior to cell plating. Intestinal epithelial cells were passaged according to the procedure described above except that the cells were suspended in expansion medium (EM-Table 1) and plated directly onto the top compartment of Transwell inserts. Cells from 1 well of the 6-well plate were dispersed into 6 separate 12-well Transwell inserts (1 mL in the upper [apical] reservoir, and 2 mL in the lower [basal] reservoir). The medium was exchanged every 48 h. To induce cell differentiation and mucus production, the medium was switched to differentiation medium (DM-Table 1) after 5 days. In the submerged culture, 1 mL DM was added in the apical reservoir and 2 mL in the basal reservoir. The medium was exchanged every 48 h thereafter. In the ALI culture, the medium in the apical reservoir was completely aspirated, 1 mL DM or DM-VIP (DM containing 330 ng/mL VIP [AnaSpec, #AS-22872]) was added to the basal reservoir, and medium was exchanged every 24 h thereafter. By day 10, the system was suitable for characterization and cytokine assay.
# To verify the function of VIP to stimulate water secretion, human colonic stem cells were cultured under EM for 5 days. At day 5, the basal medium was switched to DM with varying VIP concentration and the cells placed under the ALI culture conditions. After 24 h, the water accumulated in the apical reservoir was collected and weighed with an analytical balance. In the absence of VIP, the accumulation of water in the apical reservoir was not measurable. […] A plateau was reached when VIP concentration was >1 ng/mL. At this saturating concentration, approximately 42 mg/cm^2 water accumulated after a 24 h incubation with VIP, corresponding to a water depth in the reservoir of 420 μm.
substance,measurement,setting,value
vasoactive intestinal peptide [VIP],VIP concentration at which plateau of water secretion was reached,"ALI culture, 24 h",> 1 ng/mL
same,water accumulated in apical reservoir,"saturating VIP concentration, 24 h incubation",approximately 42 mg/cm^2
same,water depth in the reservoir,"saturating VIP concentration, 24 h incubation, corresponds to the accumulated water",420 μm
